From PubChem BioAssay AID2060626 (Molecular Pharmacology Branch, DTP, NCI, 2025)

System: 168753-222-R-J1-PDC complex spheroid viability
Experiment: Anticancer human tumor 168753-222-R-J1-PDC patient-derived bladder carcinoma cell line growth inhibition [CLK]
Conditions: for IC50: curve of first compound; for viability, T/C: stronger effect = lower value
Method in brief: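 Patient-derived tumor cells grown as complex spheroids with HUVEC endothelial cells and mesenchymal stem cells, treated with drug combinations. Concentrations descend in half-log steps from near clinical Cmax, or from 10 microM if Cmax unknown.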

[1] = second compound 0.0316 µM, first compound 0.0316 µM
[2] = second compound 0.0316 µM, first compound 0.1 µM
[3] = second compound 0.0316 µM, first compound 0.316 µM
[4] = second compound 0.0316 µM, first compound 1 µM
[5] = second compound 0.0316 µM, first compound 3.16 µM
[6] = second compound 0.0316 µM, first compound 10 µM
[7] = second compound 0.1 µM, first compound 0.0316 µM
[8] = second compound 0.1 µM, first compound 0.1 µM
[9] = second compound 0.1 µM, first compound 0.316 µM
[10] = second compound 0.1 µM, first compound 1 µM
[11] = second compound 0.1 µM, first compound 3.16 µM
[12] = second compound 0.1 µM, first compound 10 µM
[13] = second compound 0.316 µM, first compound 0.0316 µM
[14] = second compound 0.316 µM, first compound 0.1 µM
[15] = second compound 0.316 µM, first compound 0.316 µM
[16] = second compound 0.316 µM, first compound 1 µM
[17] = second compound 0.316 µM, first compound 3.16 µM
[18] = second compound 0.316 µM, first compound 10 µM
[19] = second compound 1 µM, first compound 0.0316 µM
[20] = second compound 1 µM, first compound 0.1 µM
[21] = second compound 1 µM, first compound 0.316 µM
[22] = second compound 1 µM, first compound 1 µM
[23] = second compound 1 µM, first compound 3.16 µM
[24] = second compound 1 µM, first compound 10 µM
[25] = second compound 3.16 µM, first compound 0.0316 µM
[26] = second compound 3.16 µM, first compound 0.1 µM
[27] = second compound 3.16 µM, first compound 0.316 µM
[28] = second compound 3.16 µM, first compound 1 µM
[29] = second compound 3.16 µM, first compound 3.16 µM
[30] = second compound 3.16 µM, first compound 10 µM
[31] = second compound 10 µM, first compound 0.0316 µM
[32] = second compound 10 µM, first compound 0.1 µM
[33] = second compound 10 µM, first compound 0.316 µM
[34] = second compound 10 µM, first compound 1 µM
[35] = second compound 10 µM, first compound 3.16 µM
[36] = second compound 10 µM, first compound 10 µM
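Also: viability measured after seven days of drug exposure.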
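For viability, T/C in this document: luminescence signal used as surrogate for viable cell amount; 100% = DMSO vehicle control wells.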

Structure (SMILES): CC(=O)O[C@H]1C(=O)[C@@]2(C)[C@H]([C@H](OC(=O)c3ccccc3)[C@]3(O)C[C@H](OC(=O)[C@H](O)[C@@H](NC(=O)c4ccccc4)c4ccccc4)C(C)=C1C3(C)C)[C@]1(OC(C)=O)CO[C@@H]1C[C@@H]2O + CNC(=O)c1ccc(Nc2nc(OC3CCCC3)c3c(-c4ccc5nc(C)oc5c4)c[nH]c3n2)c(OC)c1
- IC50 (second compound 0.0316 µM): 130 nM
- IC50 (second compound 0.1 µM): > 10000 nM
- IC50 (second compound 0.316 µM): > 10000 nM
- IC50 (second compound 1 µM): < 31.6 nM
- IC50 (second compound 3.16 µM): < 31.6 nM
- IC50 (second compound 10 µM): < 31.6 nM
- viability, T/C [1]: 74.5%
- viability, T/C [2]: 39.9%
- viability, T/C [3]: 30.9%
- viability, T/C [4]: 33.1%
- viability, T/C [5]: 53.4%
- viability, T/C [6]: 53.2%
- viability, T/C [7]: 80.8%
- viability, T/C [8]: 64.2%
- viability, T/C [9]: 64.6%
- viability, T/C [10]: 67.7%
- viability, T/C [11]: 86.6%
- viability, T/C [12]: 88.2%
- viability, T/C [13]: 79.1%
- viability, T/C [14]: 80.5%
- viability, T/C [15]: 77.5%
- viability, T/C [16]: 79.9%
- viability, T/C [17]: 85%
- viability, T/C [18]: 93.9%
- viability, T/C [19]: 52.3%
- viability, T/C [20]: 34.7%
- viability, T/C [21]: 41.2%
- viability, T/C [22]: 29.4%
- viability, T/C [23]: 52.9%
- viability, T/C [24]: 62.7%
- viability, T/C [25]: 20.9%
- viability, T/C [26]: 22.2%
- viability, T/C [27]: 26.7%
- viability, T/C [28]: 31.1%
- viability, T/C [29]: 29.9%
- viability, T/C [30]: 36.4%
- viability, T/C [31]: 20.9%
- viability, T/C [32]: 18.6%
- viability, T/C [33]: 23.8%
- viability, T/C [34]: 29.1%
- viability, T/C [35]: 35.4%
- viability, T/C [36]: 31.4%

Structure (SMILES): COc1cccc2c1C(=O)c1c(O)c3c(c(O)c1C2=O)CC(O)(C(=O)CO)CC3OC1CC(N)C(O)C(C)O1 (centres undefined) + CNC(=O)c1ccc(Nc2nc(OC3CCCC3)c3c(-c4ccc5nc(C)oc5c4)c[nH]c3n2)c(OC)c1
- IC50 (second compound 0.0316 µM): 291 nM
- IC50 (second compound 0.1 µM): 266 nM
- IC50 (second compound 0.316 µM): 141 nM
- IC50 (second compound 1 µM): < 31.6 nM
- IC50 (second compound 3.16 µM): < 31.6 nM
- IC50 (second compound 10 µM): < 31.6 nM
- viability, T/C [1]: 83.8%
- viability, T/C [2]: 73.1%
- viability, T/C [3]: 50%
- viability, T/C [4]: 14.6%
- viability, T/C [5]: 13.7%
- viability, T/C [6]: 0.12%
- viability, T/C [7]: 94.5%
- viability, T/C [8]: 72.3%
- viability, T/C [9]: 49.8%
- viability, T/C [10]: 14.9%
- viability, T/C [11]: 15.6%
- viability, T/C [12]: 0.1%
- viability, T/C [13]: 71.9%
- viability, T/C [14]: 57.7%
- viability, T/C [15]: 33.1%
- viability, T/C [16]: 14.1%
- viability, T/C [17]: 8%
- viability, T/C [18]: 0.12%
- viability, T/C [19]: 30.2%
- viability, T/C [20]: 18.5%
- viability, T/C [21]: 15.2%
- viability, T/C [22]: 14.1%
- viability, T/C [23]: 6.77%
- viability, T/C [24]: 0.13%
- viability, T/C [25]: 18.4%
- viability, T/C [26]: 17.9%
- viability, T/C [27]: 13.3%
- viability, T/C [28]: 12.1%
- viability, T/C [29]: 2.89%
- viability, T/C [30]: 0.14%
- viability, T/C [31]: 16%
- viability, T/C [32]: 16%
- viability, T/C [33]: 12.1%
- viability, T/C [34]: 11.2%
- viability, T/C [35]: 0.71%
- viability, T/C [36]: 0.24%
